Measured values as given in the supplement of paper PMC12317010.
Where a name gives a salt, the structure may show the parent alone.

Assay: collision cross section in nitrogen (drift tube, single-field); higher = larger gas-phase ion size
[1] = ion type: [M+H], ion source: APCI, ion mode: Positive
[2] = ion type: [M+H], ion source: ESI, ion mode: Positive
[3] = ion type: [M+Na], ion source: ESI, ion mode: Positive
[4] = ion type: [M-H], ion source: ESI, ion mode: Negative
[5] = ion type: [M+], ion source: APCI, ion mode: Positive
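Further: chemical standards at 10 µM analysed by drift tube IMS-QTOF MS in about 3.95 torr nitrogen, mean of duplicate injections differing ≤1%, mass error below 10 ppm.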

SMILES	collision cross section in nitrogen [1]	collision cross section in nitrogen [2]	collision cross section in nitrogen [3]	collision cross section in nitrogen [4]	also measured
Fc1ccc([C@@]2(Cn3cncn3)O[C@@H]2c2ccccc2Cl)cc1 [Epoxiconazole]	176.9 Å²	176.6 Å²	191.3 Å²		
CC(=O)CC(=O)Nc1ccc2[nH]c(=O)[nH]c2c1 [3-Oxo-N-(2-oxo-2,3-dihydro-1H-benzimidazol-5-yl)butanamide]				154.4 Å²	
O=C(O)CCCCCCCCCC(=O)O [Undecanedioic acid]				149 Å²	
Cc1c(C(=O)NCCO)[n+]([O-])c2ccccc2[n+]1[O-] [Olaquindox]				161.2 Å²	
C#C[C@]1(O)CC[C@H]2[C@@H]3CCC4=CC(=O)CC[C@]4(C)[C@H]3CC[C@@]21C [Ethisterone]	180.2 Å²		204.6 Å²		
c1ccc2cc3c(ccc4ccccc43)cc2c1 [Benz(a)anthracene]					collision cross section in nitrogen [5]: 146.3 Å²
CCN(CC)C(=O)c1cc(S(=O)(=O)Cc2ccccc2)c(N2CCC(c3ccccc3)CC2)cc1N(CC)CCN(C)C [HMR1171 trifluoroacetate (1:1)]	249.1 Å²	249.1 Å²	251.8 Å²	250 Å²	
OC[C@@H](O)[C@@H](O)[C@H](O)[C@H](O)CO [D-Mannitol]			141.5 Å²	132.5 Å²	
C=C(C)C(=O)OCCOCCOCCOCCOC(=O)C(=C)C [Tetraethyleneglycol dimethacrylate]	171.2 Å²		176.9 Å²		
O=C(Oc1cccc(O)c1)c1ccccc1 [Resorcinol monobenzoate]				152.9 Å²	
Cc1cc(Cl)ccc1N=CN(C)C [Chlordimeform hydrochloride]	146.2 Å²				
N#CCCOCCOCCC#N [3,3'-(Ethylenedioxy)dipropiononitrile]			143 Å²		
COc1c2occc2c(OC)c2c(=O)cc(C)oc12 [Khellin]	151.6 Å²	151.1 Å²	167.5 Å²		
CCOP(=S)(OCC)Oc1cc(C)nc(C(C)C)n1 [Diazinon]	173.5 Å²	173.7 Å²			
CCCCOC(=O)CCCCCCCC(=O)OCCCC [Dibutyl azelate]			191.2 Å²	176 Å²	
CC(C)(C)C(=O)C(Oc1ccc(Cl)cc1)n1cncn1 (stereo unspecified) [Triadimefon]	174.6 Å²	173.6 Å²		167.7 Å²	
O=S(=O)(c1ccc2c(c1)CCCN2)N1CCC[C@@H]2CCCC[C@H]21	179.5 Å²	178.5 Å²	195.9 Å²	179.6 Å²	
Cc1ncsc1CCO [Thiamine thiozole]	126.1 Å²	126.5 Å²			
CCCCCCCCCCCCCC[P+](CCCC)(CCCC)CCCC [Tributyltetradecylphosphonium chloride]					collision cross section in nitrogen (ion source: APCI, ion mode: Positive, ion type: [M]+ (permanent cation)): 224 Å²; collision cross section in nitrogen (ion source: ESI, ion mode: Positive, ion type: [M]+ (permanent cation)): 224.5 Å²
N=C(N)c1ccccc1 [Benzenecarboximidamide, monohydrochloride]	124.7 Å²	125 Å²			
CCNc1nc(NC(C)CC)nc(OC)n1 (stereo unspecified) [Secbumeton]	155.3 Å²	155.2 Å²	172.2 Å²		
COP(=O)(O)OC [Dimethyl phosphate]				120.6 Å²	
CC1=NN(c2ccc(S(=O)(=O)O)cc2)C(=O)C1N=Nc1ccccc1 (stereo unspecified) [C.I. Acid Yellow 11, sodium salt]				199.2 Å²	
CCC(C)c1cc(C(C)(C)C)cc(-n2nc3ccccc3n2)c1O (stereo unspecified) [2-(2H-Benzotriazol-2-yl)-6-(butan-2-yl)-4-tert-butylphenol]	187.2 Å²			192.5 Å²	
O=[N+]([O-])c1ccc([As](=O)(O)O)cc1 [Nitarsone]		144.4 Å²		138.9 Å²	
COc1ccc([N+](=O)[O-])cc1O [Sodium 2-methoxy-5-nitrophenolate]				129.6 Å²	
CCC1(C)NC(=O)NC1=O (stereo unspecified) [5-Ethyl-5-methylhydantoin]				129.7 Å²	
O=S(=O)(O)C(F)(F)F [Trifluoromethanesulfonic acid]				110.8 Å²	
Nc1cc(Cl)c(N)c(Cl)c1 [2,6-Dichloro-1,4-benzenediamine]		135.5 Å²			collision cross section in nitrogen [5]: 128.1 Å²
CC(C)(C#N)Nc1nc(Cl)nc(NC2CC2)n1 [Procyazine]	159.4 Å²	159 Å²			
